Experimental findings from US20120041019A1, “PROTEASE INHIBITORS” (priority 2008, published 2012) are described below.

For orientation: IC50 means the concentration that gives 50% inhibition.

In one experiment the target is T1, HIV-1 Protease (Human immunodeficiency virus type 1 group M subtype B, UniProt P04585).
T1 construct: SensoLyte™ 490 HIV-1 Protease Assay Kit
As to the kind of experiment: Cell free assay (SensoLyte 490 HIV-1 Protease Assay Kit). Type of experiment: biochemical. The method, then:
Procedure—cell free assay. The cell free assays were conducted according to the test kit protocol provided with the SensoLyte™ 490 HIV-1 Protease Assay Kit, available from AnaSpec (San Jose, Calif.).

In another experiment the test system is HIV-1LAI. Kind of experiment: Cell infectivity assay (HIV-1LAI infection of CEM-T4 cells, p24 readout). Particulars: for IC50: Human immunodeficiency virus 1, CEM-T4 cells infected with HIV-1LAI, read-out: HIV PI IC50 (nM) (Cell Infectivity Assay); for loss in potency between cell free assay experiments and cell infectivity assay experiments: comparison of cell free and cell infectivity IC50. The experiment is classed as cell-based. The method, then:
Procedure—cell infectivity assay. The T-cell-tropic strain HIV-1LAI was used to infect CEM-T4 cells over a dose range of the protease inhibitor compounds. CEM-T4 cells were grown in RPMI 1640 medium supplemented with 10% heat-inactivated fetal bovine serum, penicillin (100 units/mL), streptomycin (100 ug/mL), and polybrene (2 ug/mL) at 37° C. with 5% CO2. The PI dose range covered a total of nine 3:1 dilutions from 5000 nM to less than 1 nM. The tittered virus was added to wells of CEM cells (pre-treated with protease inhibitor [PI] dilution series for 1 h) at a low multiplicity of infection (MOI=0.01) and incubated for 4 h at 37° C. The cells then were washed three times with PBS (GIBCO/BRL), resuspended in triplicate wells each with 1 ml of culture medium containing the same concentration of PI as the initial pre-incubation and further incubated at 37° C. in 5% CO2. Each well of the 24-well plate contains 1×10̂5 cells upon incubation initiation. The cells were fed every two days with fresh PI at the appropriate concentration. Samples were scored for cytopathic effect on day 4, and if consistent CPE was seen throughout the various wells, the supernatants was collected for p24 assay. Otherwise, the cultures were maintained with feeding every other day until day 8, at which point the p24 were initiated.

Where [1] appears, read: Table 2 Activity Data, read-out: HIV PI IC50 (nM) (Cell-Free Assay).

Where two headings read alike, the source gives them in different places.

As to `CCC(C)(C)C(=O)C(=O)N1CCCCC1C(=O)OC(CCc1ccc(OC)c(OC)c1)c1cccc(OCC(=O)NC(CC(N)=O)C(=O)NC(Cc2ccccc2)C(O)CN(CC(C)C)S(=O)(=O)c2ccc(N)cc2)c1` (stereo not drawn) [Compound A14], the IC50 at HIV-1 Protease (setting [1]) was 3.5 nM. Take `CCC(C)(C)C(=O)C(=O)N1CCCCC1C(=O)OC(CCc1ccc(OC)c(OC)c1)c1cccc(OCC(=O)NC(C(=O)NC(Cc2ccccc2)C(O)CN(CC(C)C)S(=O)(=O)c2ccc(N)cc2)C(C)C)c1` (stereo not drawn) [Compound A5]: in the experiment with HIV-1LAI, the 50% inhibitory concentration (IC50) is 3.3 nM; the “loss in potency between cell free assay experiments and cell infectivity assay experiments” value is listed as “little or no loss in potency”. This compound came in with an IC50 on HIV-1 Protease of 7.9 nM. Consider `CCC(C)(C)C(=O)C(=O)N1CCCCC1C(=O)OC(CCc1ccc(OC)c(OC)c1)c1cccc(OCCNC(=O)CCCOC(=O)NC(Cc2ccccc2)C(O)CN(CC(C)C)S(=O)(=O)c2ccc(N)cc2)c1` (stereo not drawn) [Compound A6], for which the IC50 at HIV-1 Protease (setting [1]) is 5.6 nM. For the compound `CCC(C)(C)C(=O)C(=O)N1CCCCC1C(=O)OC(CCc1ccc(OC)c(OC)c1)c1cccc(OCCNC(=O)NC(CC(N)=O)C(=O)NC(Cc2ccccc2)C(CN(CC(C)C)S(=O)(=O)c2ccc(N)cc2)OC)c1` (stereo not drawn) [Compound A9], the figures for the IC50 with HIV-1LAI and against HIV-1 Protease were 2.3 nM and 1.8 nM, respectively. Further, the “loss in potency between cell free assay experiments and cell infectivity assay experiments” value with HIV-1LAI is “little or no loss in potency”. Take `CCC(C)(C)C(=O)C(=O)N1CCCCC1C(=O)OC(CCc1ccc(OC)c(OC)c1)c1cccc(OCC(=O)NCCCOC(=O)NC(Cc2ccccc2)C(O)CN(CC(C)C)S(=O)(=O)c2ccc([N+](=O)[O-])cc2)c1` (stereo not drawn) [Compound A1]: the IC50 at HIV-1 Protease (setting [1]) was 24 nM. Regarding `CCC(C)(C)C(=O)C(=O)N1CCCCC1C(=O)OC(CCc1ccc(OC)c(OC)c1)c1cccc(OCC(=O)NCCCOC(=O)NC(Cc2ccccc2)C(O)CN(CC(C)C)S(=O)(=O)c2ccc(OC)cc2)c1` (stereo not drawn) [Compound A4], at HIV-1 Protease (setting [1]), the IC50 worked out at 8.4 nM. For `CCC(C)(C)C(=O)C(=O)N1CCCCC1C(=O)OC(CCc1ccc(OC)c(OC)c1)c1cccc(OCC(=O)NC(CC(N)=O)C(=O)NC(Cc2ccccc2)C(CN(CC(C)C)S(=O)(=O)c2ccc(N)cc2)OC)c1` (stereo not drawn) [Compound A7], in the experiment with HIV-1LAI, the IC50 was 14 nM; the “loss in potency between cell free assay experiments and cell infectivity assay experiments” value is listed as “little or no loss in potency”. Further, the IC50 on HIV-1 Protease stood at 6.6 nM.

`CCC(C)(C)C(=O)C(=O)N1CCCCC1C(=O)OC(CCc1ccc(OC)c(OC)c1)c1cccc(OCCNC(=O)CCCOC(=O)NC(Cc2ccccc2)C(O)CN(CC(C)C)S(=O)(=O)c2ccc([N+](=O)[O-])cc2)c1` (stereo not drawn) [Compound A3]: the IC50 at HIV-1 Protease (setting [1]) was found to be 11.5 nM. `CCC(C)(C)C(=O)C(=O)N1CCCCC1C(=O)OC(CCc1ccc(OC)c(OC)c1)c1cccc(OCCNC(=O)NC(C(=O)NC(Cc2ccccc2)C(O)CN(CC(C)C)S(=O)(=O)c2ccc(N)cc2)C(C)C)c1` (stereo not drawn) [Compound A10]: the IC50 in the experiment with HIV-1LAI came to 48.1 nM; on HIV-1 Protease, 3.9 nM.

Regarding `CCC(C)(C)C(=O)C(=O)N1CCCCC1C(=O)OC(CCc1ccc(OC)c(OC)c1)c1cccc(OCCNC(=O)COCC2OCCC2OC(=O)NC(Cc2ccccc2)C(O)CN(CC(C)C)S(=O)(=O)c2ccc(N)cc2)c1` (stereo not drawn) [Compound A13], the IC50 at HIV-1 Protease (setting [1]) is 51 nM.

As for `CC(C)CN(C[C@@H](O)[C@H](Cc1ccccc1)NC(=O)O[C@H]1CCOC1)S(=O)(=O)c1ccc(N)cc1` [Amprenavir, amprenavir, reference compound], in the experiment with HIV-1LAI, the IC50 is 171 nM; the “loss in potency between cell free assay experiments and cell infectivity assay experiments” value is listed as “significant loss of potency”. In the case of `Cc1cccc(C)c1OCC(=O)N[C@@H](Cc1ccccc1)[C@@H](O)C[C@H](Cc1ccccc1)NC(=O)[C@H](C(C)C)N1CCCNC1=O` [Lopinavir, lopinavir, reference compound], in the experiment on HIV-1LAI, the IC50 is 18.9 nM; the “loss in potency between cell free assay experiments and cell infectivity assay experiments” value was “significant loss of potency”. Further, the IC50 on HIV-1 Protease (Table 1 Activity data, read-out: HIV PI IC50 (nM) (Cell free assay)) is 0.9 nM.

For `CCC(C)(C)C(=O)C(=O)N1CCCC[C@H]1C(=O)O[C@H](CCc1ccc(OC)c(OC)c1)c1cccc(NC(=O)CCC(=O)N[C@@H](Cc2ccccc2)[C@H](O)CC(CC(C)C)S(=O)(=O)c2ccc([N+](=O)[O-])cc2)c1` (stereo partly drawn) [Compound A8], the IC50 on HIV-1 Protease (assay not named, follows the cell free data of Table 2, read-out: IC50 value) was 339 nM. As to `CCC(C)(C)C(=O)C(=O)N1CCCCC1C(=O)OC(CCc1ccc(OC)c(OC)c1)c1cccc(OCC(=O)NCCCOC(=O)NC(Cc2ccccc2)C(O)CN(CC(C)C)S(=O)(=O)c2ccc(N)cc2)c1` (stereo not drawn) [Compound A2], at HIV-1 Protease (setting [1]), the IC50 was found to be 7.3 nM.
